For the experiment, the system named is soil Fusarium sp. Put plainly: Activity against soil Fusarium sp.

SMILES strings stand for the structures.

Consider `CC(=O)O.CCCCCCCCCCCCNC(=N)N` [dodine, 1-dodecylguanidinium acetate], for which the “Activity against soil Fusarium sp.” value is recorded as “active”.

Values taken from patent US20180132483A1, “Method of Controlling Phytoparasitic Pests, Agrochemical Composition and Use Thereof” (priority 2016, published 2018).
